Measurements from the CombiSolv-Exp solvation set (Vermeire and Green 2021).

Assay: solvent given as SMILES

Clc1c(Cl)c(Cl)c(Cl)c(Cl)c1Cl
Conditions | solvation free energy, 298 K [kcal/mol]
in C1CCOC1 | -11
in C1COCCO1 | -10.8
in CC(C)CC(C)(C)C | -10
in CC(C)CCO | -9.59
in CCCC(C)O | -9.45
in CCCCC(CC)CO | -9.86
in CCCCCC | -10.2
in CCCCCCC | -10.2
in CCCCCCCC | -10.3
in CCCCCCCCC=CCCCCCCCC(=O)OCC(COC(=O)CCCCCCCC=CCCCCCCCC)OC(=O)CCCCCCCC=CCCCCCCCC | -9.52
in CCCCCCCCCC | -10.3
in CCCCCCCCO | -9.78
in CCCCCl | -10.6
in CCCCOC(C)=O | -10.4
in CCCCOCCCC | -10.4
in CCOC(C)=O | -10.2
in COC(C)=O | -10.2

CC1CCCC(O)C1 (stereo not drawn)
Conditions | solvation free energy, 298 K [kcal/mol]
in O | -5.21

Clc1cccc(Cl)c1-c1c(Cl)cccc1Cl
Conditions | solvation free energy, 298 K [kcal/mol]
in O | -2.17

C=CC(C)=CCC=C(C)C
Conditions | solvation free energy, 298 K [kcal/mol]
in O | -0.5

CC(C)CCC(C)(C)C
Conditions | solvation free energy, 298 K [kcal/mol]
in O | 2.94

COC(CCl)(OC)OC
Conditions | solvation free energy, 298 K [kcal/mol]
in O | -4.59

CC(=O)OC1(C(C)C)CC=C(C)CC1 (stereo not drawn)
Conditions | solvation free energy, 298 K [kcal/mol]
in O | -3.25

CCN(CC)CC
Conditions | solvation free energy, 298 K [kcal/mol]
in Brc1ccccc1 | -4.47
in C1CCOC1 | -4.59
in C1COCCO1 | -4.06
in CC1COC(=O)O1 | -2.89
in CC#N | -3.66
in CC(=O)c1ccccc1 | -3.93
in CC(C)(C)O | -4.38
in CC(C)=O | -4.05
in CC(C)CCO | -4.88
in CC(C)O | -4.55
in CC(Cl)(Cl)Cl | -4.63
in CCC#N | -4.03
in CCC(C)=O | -4.16
in CCC(C)O | -4.82
in CCCCCC | -4.49
in CCCCCCC | -4.47
in CCCCCCCCCCCCCCCC | -3.99
in CCCCCO | -4.97
in CCCCCl | -4.57
in CCCCO | -4.85
in CCCO | -4.82
in CCO | -4.87
in CCOC(=O)c1ccccc1 | -4.06
in CCOC(C)=O | -4.23
in CCOCC | -4.45
in CN(C)C=O | -3.57
in CO | -5.24
in Cc1ccc(C)cc1 | -4.52
in Cc1ccccc1 | -4.66
in ClC1CCCCC1 | -4.29
in ClC(Cl)(Cl)Cl | -4.82
in ClC(Cl)C(Cl)Cl | -5.86
in ClC(Cl)Cl | -5.61
in ClCCCl | -4.38
in ClCCl | -4.98
in Clc1ccccc1 | -4.56
in Ic1ccccc1 | -4.33
in N#Cc1ccccc1 | -4.05
in O | -3.22
in O=C1CCCCC1 | -4.11
in c1ccccc1 | -4.6

CCCCOC(=O)c1ccc(O)cc1
Conditions | solvation free energy, 298 K [kcal/mol]
in O | -8.72

CCCCCCCNCc1ccc(C)cc1
Conditions | solvation free energy, 298 K [kcal/mol]
in O | -5.01

CN1C2CCC1CC(OC(=O)C(O)c1ccccc1)C2 (stereo not drawn)
Conditions | solvation free energy, 298 K [kcal/mol]
in O | -13.8

FCC(F)(F)F
Conditions | solvation free energy, 298 K [kcal/mol]
in CCCCCCCC(=O)OCC(COC(=O)CCCCCCC)OC(=O)CCCCCCC | -1.21
in CCCCCCCCC | -0.76
in CCCCCCCCO | -0.89
in CN1CCCC1=O | -1.96
in CN(C)C=O | -2.21
in O | 0.56

CCCCCl
Conditions | solvation free energy, 298 K [kcal/mol]
in C1CCOC1 | -4.57
in C1CCOCC1 | -4.52
in C1COCCO1 | -4.4
in C=CCCCCCCCCCCCCCC | -3.77
in CC(C)(C)O | -3.7
in CC(C)=O | -4.26
in CC(C)CC(C)(C)C | -3.91
in CC(C)CO | -3.72
in CC(C)OC(C)C | -4.21
in CCC(C)O | -3.72
in CCCBr | -4.49
in CCCCCC | -4.05
in CCCCCCC | -3.96
in CCCCCCCCC=CCCCCCCCC(=O)OCC(COC(=O)CCCCCCCC=CCCCCCCCC)OC(=O)CCCCCCCC=CCCCCCCCC | -3.93
in CCCCCCCCCCCCCCCC | -3.68
in CCCCCCCCCCO | -3.67
in CCCCCCCCO | -3.71
in CCCCOC | -4.37
in CCCCOCCCC | -4.11
in CCCO | -3.59
in CCCOCCC | -4.23
in CCI | -4.43
in CCOC(C)=O | -4.31
in CCOCC | -4.38
in COC(C)(C)C | -4.3
in ClC(Cl)(Cl)Cl | -4.31
in ClCCCl | -4.43
in Clc1ccccc1 | -4.35
in O | -0.23
in [2H]O[2H] | -0.73
